“Also recorded” adds a separate entry of the source. Read-outs that look alike come from different tables or passages of the source.
Legend:
AChE from E. electricus = target: T1, AChE from E. electricus (Electrophorus electricus, UniProt O42275); experiment: biochemical
T1 construct: purchased Sigma Aldrich
Experimental: (§1) This method is based on the reaction of acetylthiocholine with 5,5′´-dithio-bis-(2-nitrobenzoic) acid (DTNB) to yield the colored product.
(§2) AChE from E. electricus, and horse serum BuChE (eqBuChE, Sigma-Aldrich) 5,5-Dithiobis-(2-nitrobenzoic acid) (DTNB), and acetylthiocholine iodide (ATC) were purchased from Sigma Aldrich. […] In this procedure, five different concentrations of each compound were used at 25°C. […] For the in-vitro BuChE assay similar method has been used.

[1] = target: T2, horse serum BuChE (eqBuChE) (Equus caballus, UniProt P81908); experiment: biochemical; conditions: Ellman's method, 25°C, mean ± SEM of three experiments
T2 construct: horse serum BuChE (eqBuChE, Sigma-Aldrich); purchased Sigma-Aldrich; host or cells: horse serum
Experimental: as §1, §2

Aβ1–42 = target: T3, Aβ1–42 (Homo sapiens, UniProt P05067); experiment: Inhibition of self-induced Aβ1–42 aggregation (thioflavin T assay); format: biochemical; conditions: for Effectiveness relative to donepezil in inhibition of self-induced Aβ aggregation: 10 μM; for inhibition at 10 µM: read-out: Inhibition of Aβ aggregation (%) Self-induced
T3 construct: Aβ1–42 (Sigma A9810); purchased Sigma A9810
Experimental: (§3) For this purpose, we used the thioflavin T (ThT) assay.
(§4) Aβ1–42 (Sigma A9810) 50 μM was dissolved in ammonium hydroxide (1% v/v) for pre-fibrillation and incubated for 72 h at 37°C. […] Next, 50 μl of thioflavin T (ThT, 200 μM) containing 50 mM glycine-NaOH buffer (pH 8.5) was added. […] The aggregation inhibition of the tested compounds was calculated on AChE or self-induced Aβ-aggregation according to the equation (1−IFi/IFc) × 100, where IFi and IFc are the fluorescence intensities in the presence of inhibitors and in the absence of inhibitors, respectively.

[2] = target: T4, Aβ1–42 and human recombinant AChE (Homo sapiens, UniProt P22303); experiment: Inhibition of AChE-induced Aβ1–42 aggregation (thioflavin T assay); format: biochemical; conditions: read-out: Inhibition of Aβ aggregation (%) AChE-induced
T4 construct: Aβ1–42 (Sigma A9810); purchased Sigma C1682 (AChE); A9810 (Aβ1–42)
Experimental: as §3, §4

[3] = Cell viability assay (MTT) in PC12 cells; format: cell-based; conditions: rat
Experimental: Safety is an important factor for CNS agents. In order to evaluate the cytotoxic effect of selected compounds 5a, 5f, 5h, 5i, and 5l, the in-vitro cell viability assay was investigated on the PC12 cell line using the MTT (3-(4,5-dimethylthiazol-2-yl)-2,5-diphenyltetrazolium bromide) assay. The PC12 cells were incubated with varying concentrations (0.01–100 μM) of the test compounds for 24 h. […] The results are expressed as the percentage of viable cells.
In order to evaluate cell viability of 5a, 5f, 5h, 5i, and 5l, the 3-(4,5-dimethylthiazol-2-yl)-2,5-diphenyl tetrazolium bromide (MTT) assay was performed using PC12 cell line. Cells were seeded in 96-well plates at a density of 5,000 cells/well for 24 h, and then cells were treated with tested compounds and glutamate (5 mM) and incubated at 37°C for 24 h. After that, the medium was removed and 20 μl of the MTT reagent (5 mg/ml) was added and incubated at 37 °C for 4 h. Then, the medium was replaced with 150 μl DMSO to solve formazan crystals. The absorbance was recorded by microplate reader apparatus (Biotek, Winooski, VT, United States) at 570 nm. The assay was performed in three independent experiments and triplicate.

AChE = AChE (Electrophorus electricus, UniProt O42275); experiment: Kinetics study of AChE inhibition (Lineweaver-Burk plots); format: biochemical; conditions: inhibitor at 0.32, 0.64, 1.27 μM, substrate ATCh
Experimental: The inhibition model of acetylcholinesterase can be categorized into irreversible-type inhibition and reversible-type inhibition. […]. The type of inhibition can be concluded with a graphical analysis of the Lineweaver-Burk reciprocal plots ([Baharloo et al., 2015]).
[…]. The experiment was assayed in triplicate.

[4] = Ellman's method, 25°C, mean ± SEM of three experiments, read-out: IC50 (μM) AChE
[5] = compound at 10 μM, ThT assay, mean ± SEM of three experiments

T2 sequence (P81908 whole entry): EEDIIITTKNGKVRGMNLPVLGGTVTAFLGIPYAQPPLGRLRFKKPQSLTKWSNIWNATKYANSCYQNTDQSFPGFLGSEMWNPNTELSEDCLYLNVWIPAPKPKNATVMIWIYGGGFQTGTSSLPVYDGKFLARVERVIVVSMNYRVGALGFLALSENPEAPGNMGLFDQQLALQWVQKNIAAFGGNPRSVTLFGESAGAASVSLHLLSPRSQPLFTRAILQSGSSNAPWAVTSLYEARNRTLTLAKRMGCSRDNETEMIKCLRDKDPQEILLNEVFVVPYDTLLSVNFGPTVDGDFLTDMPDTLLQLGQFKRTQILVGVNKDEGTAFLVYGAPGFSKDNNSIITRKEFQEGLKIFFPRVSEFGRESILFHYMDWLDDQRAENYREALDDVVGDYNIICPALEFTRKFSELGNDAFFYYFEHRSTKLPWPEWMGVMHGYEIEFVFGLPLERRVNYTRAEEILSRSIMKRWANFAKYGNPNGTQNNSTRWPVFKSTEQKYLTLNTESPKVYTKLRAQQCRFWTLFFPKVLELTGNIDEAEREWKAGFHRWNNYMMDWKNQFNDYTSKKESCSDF
T1 sequence (O42275 24-633): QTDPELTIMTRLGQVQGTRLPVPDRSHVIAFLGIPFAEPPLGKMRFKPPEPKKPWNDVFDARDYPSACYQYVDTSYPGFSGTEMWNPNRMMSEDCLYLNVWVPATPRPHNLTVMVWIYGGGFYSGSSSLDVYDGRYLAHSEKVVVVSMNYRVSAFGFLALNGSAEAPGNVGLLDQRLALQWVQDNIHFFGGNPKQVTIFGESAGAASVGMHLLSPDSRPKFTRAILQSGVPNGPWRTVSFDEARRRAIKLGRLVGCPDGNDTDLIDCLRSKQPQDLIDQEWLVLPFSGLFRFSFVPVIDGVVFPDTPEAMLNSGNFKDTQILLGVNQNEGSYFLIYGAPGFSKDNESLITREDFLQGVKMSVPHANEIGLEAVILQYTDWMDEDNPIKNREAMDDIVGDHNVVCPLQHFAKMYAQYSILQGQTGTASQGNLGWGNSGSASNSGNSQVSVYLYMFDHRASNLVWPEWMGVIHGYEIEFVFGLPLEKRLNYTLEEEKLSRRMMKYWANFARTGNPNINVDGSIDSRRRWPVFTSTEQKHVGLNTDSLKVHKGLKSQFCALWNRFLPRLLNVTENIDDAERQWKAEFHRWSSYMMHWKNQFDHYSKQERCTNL
T4 sequence (P22303 32-614): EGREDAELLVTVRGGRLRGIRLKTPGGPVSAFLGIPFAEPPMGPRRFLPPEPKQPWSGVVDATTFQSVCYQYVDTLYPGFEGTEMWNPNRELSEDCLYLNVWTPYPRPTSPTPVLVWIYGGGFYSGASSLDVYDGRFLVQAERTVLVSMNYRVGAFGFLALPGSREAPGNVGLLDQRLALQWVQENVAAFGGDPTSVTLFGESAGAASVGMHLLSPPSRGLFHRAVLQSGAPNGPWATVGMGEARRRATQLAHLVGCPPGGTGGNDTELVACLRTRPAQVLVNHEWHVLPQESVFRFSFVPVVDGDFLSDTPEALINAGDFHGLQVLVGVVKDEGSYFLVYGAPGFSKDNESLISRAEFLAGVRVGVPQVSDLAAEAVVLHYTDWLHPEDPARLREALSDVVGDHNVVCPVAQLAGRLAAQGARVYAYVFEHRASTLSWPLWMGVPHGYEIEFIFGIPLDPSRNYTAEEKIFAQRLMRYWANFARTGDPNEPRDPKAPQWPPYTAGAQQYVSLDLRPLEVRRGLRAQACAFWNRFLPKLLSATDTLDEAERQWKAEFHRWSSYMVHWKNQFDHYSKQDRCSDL
T3 sequence (P05067 672-713 limits assumed): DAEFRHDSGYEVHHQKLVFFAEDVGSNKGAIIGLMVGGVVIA
Sequence of AChE (O42275 24-633): as the sequence (O42275 24-633) above

What does the source list for Nc1c(-c2cc[n+](Cc3cccc(Br)c3)cc2)oc2ccccc12 [5m, 4-(3-Aminobenzofuran-2-yl)-1-(3-bromobenzyl) pyridin-1-ium chloride]?
IC50 (AChE from E. electricus; [4]): 4.47 ± 0.02 µM; IC50 [1]: 13.9 ± 1.2 µM

Which IC50 (AChE from E. electricus; [4]) does the source give for Nc1c(-c2cc[n+](Cc3ccc(Br)cc3)cc2)oc2ccccc12 [5n, 4-(3-Aminobenzofuran-2-yl)-1-(4-bromobenzyl) pyridin-1-ium chloride] here?
The IC50 was 15.8 ± 0.91 µM.

What about the IC50 [1] of the same compound?
The IC50 was 22.6 ± 3.33 µM.

With Cc1cccc(C[n+]2ccc(-c3oc4ccccc4c3N)cc2)c1 [5c, 4-(3-Aminobenzofuran-2-yl)-1-(3-methylbenzyl) pyridin-1-ium chloride] as the compound, how does the IC50 (AChE from E. electricus; [4]) read?
Its IC50 is 3.32 ± 0.04 µM.

And the IC50 [1]?
The IC50 was 12.9 ± 3.56 µM.

Which IC50 (AChE from E. electricus; [4]) does the source give for Nc1c(-c2cc[n+](Cc3ccc(Cl)cc3)cc2)oc2ccccc12 [5k, 4-(3-Aminobenzofuran-2-yl)-1-(4-chlorobenzyl) pyridin-1-ium chloride] here?
Its IC50 is 16.6 ± 0.52 µM.

And the IC50 [1]?
Its IC50 is 31.2 ± 2.56 µM.

With Nc1c(-c2cc[n+](Cc3ccccc3[N+](=O)[O-])cc2)oc2ccccc12 [5o, 4-(3-Aminobenzofuran-2-yl)-1-(2-nitrobenzyl) pyridin-1-ium chloride] as the compound, how does the IC50 (AChE from E. electricus; [4]) read?
The IC50 was 7.84 ± 0.05 µM.

What about the IC50 [1] of the same compound?
Its IC50 is 28.63 ± 0.13 µM.

Which IC50 (AChE from E. electricus; [4]) does the source give for Nc1c(-c2cc[n+](Cc3ccc([N+](=O)[O-])cc3)cc2)oc2ccccc12 [5p, 4-(3-Aminobenzofuran-2-yl)-1-(4-nitrobenzyl) pyridin-1-ium chloride] here?
The IC50 was 20.6 ± 0.8 µM.

And the IC50 [1]?
The IC50 was 28.3 ± 0.48 µM.

With Nc1c(-c2cc[n+](Cc3cccc(F)c3)cc2)oc2ccccc12 [5g, 4-(3-Aminobenzofuran-2-yl)-1-(3-fluorobenzyl) pyridin-1-ium chloride] as the compound, how does the IC50 (AChE from E. electricus; [4]) read?
Its IC50 is 1.68 ± 0.02 µM.

What about the IC50 [1] of the same compound?
The IC50 was 2.89 ± 0.42 µM.

For COc1cccc(C[n+]2ccc(-c3oc4ccccc4c3N)cc2)c1 [5e, 4-(3-Aminobenzofuran-2-yl)-1-(3-methoxybenzyl) pyridin-1-ium chloride], which IC50 (AChE from E. electricus; [4]) is on record?
Its IC50 is 81.1 ± 1.61 µM.

What about the IC50 [1] of the same compound?
Its IC50 is > 100 µM.

What does the source list for Cc1ccc(C[n+]2ccc(-c3oc4ccccc4c3N)cc2)cc1 [5d, 4-(3-Aminobenzofuran-2-yl)-1-(4-methylbenzyl) pyridin-1-ium chloride]?
IC50 (AChE from E. electricus; [4]): 29.3 ± 0.82 µM; IC50 [1]: 25.3 ± 1.91 µM

With Nc1c(-c2cc[n+](Cc3ccc(F)cc3)cc2)oc2ccccc12.[Cl-] [5h, 4-(3-Aminobenzofuran-2-yl)-1-(4-fluorobenzyl) pyridin-1-ium chloride] as the compound, how does the IC50 (AChE from E. electricus) read?
The IC50 was 0.88 ± 0.04 µM.

And the IC50 [1]?
The IC50 was 5.05 ± 0.73 µM.

And the “Effectiveness relative to donepezil in inhibition of self-induced Aβ aggregation” value (Aβ1–42; ThT assay)?
Its value is “about 2 fold”.

What about the inhibition at 10 µM (Aβ1–42; [5]) of the same compound?
The inhibition at 10 µM was 38.8 ± 2.8%.

And the inhibition at 100 µM [2]?
The inhibition at 100 µM was 35.6 ± 1.5%.

What about the viability at 24 h [3] of the same compound?
The viability at 24 h was 88.2 ± 2.4%.

What does the source list for Nc1c(-c2cc[n+](Cc3ccccc3Cl)cc2)oc2ccccc12 [5i, 4-(3-Aminobenzofuran-2-yl)-1-(2-chlorobenzyl) pyridin-1-ium chloride]?
IC50 (AChE from E. electricus): 0.7 ± 0.01 µM; IC50 [1]: 0.99 ± 0.05 µM; inhibition at 10 µM (Aβ1–42; [5]): 24.8 ± 1.5%; inhibition at 100 µM [2]: 26.5 ± 3.8%; viability at 24 h [3]: 90.2 ± 4.1%

Which results are given for Cc1ccccc1C[n+]1ccc(-c2oc3ccccc3c2N)cc1 [5b, 4-(3-Aminobenzofuran-2-yl)-1-(2-methylbenzyl) pyridin-1-ium chloride]?
IC50 (AChE from E. electricus; [4]): 3.29 ± 0.01 µM; IC50 [1]: 17.4 ± 2.45 µM

Which inhibition at 10 µM (Aβ1–42) does the source give for COc1cc2c(cc1OC)C(=O)C(CC1CCN(Cc3ccccc3)CC1)C2 (stereo not drawn) [Donepezil, reference compound] here?
Its inhibition at 10 µM is 14.9 ± 2.5%.

For Nc1c(-c2cc[n+](Cc3ccccc3)cc2)oc2ccccc12 [5a, 4-(3-Aminobenzofuran-2-yl)-1-benzylpyridin-1-ium chloride], which IC50 (AChE from E. electricus) is on record?
The IC50 was 0.81 ± 0.02 µM.

And the IC50 [1]?
The IC50 was 0.82 ± 0.07 µM.

What about the inhibition at 10 µM (Aβ1–42; [5]) of the same compound?
The inhibition at 10 µM was 17.6 ± 3.8%.

And the inhibition at 100 µM [2]?
Its inhibition at 100 µM is 22.4 ± 1.6%.

What about the viability at 24 h [3] of the same compound?
Its viability at 24 h is 85.9 ± 1.5%.

With Nc1c(-c2cc[n+](Cc3ccccc3Br)cc2)oc2ccccc12 [5l, 4-(3-Aminobenzofuran-2-yl)-1-(2-bromobenzyl) pyridin-1-ium chloride] as the compound, how does the IC50 (AChE from E. electricus) read?
Its IC50 is 1.34 ± 0.01 µM.

And the IC50 [1]?
Its IC50 is 10.5 ± 0.19 µM.

And the inhibition at 10 µM (Aβ1–42; [5])?
Its inhibition at 10 µM is 25.7 ± 2.7%.

And the inhibition at 100 µM [2]?
Its inhibition at 100 µM is 22.4 ± 2.3%.

What about the viability at 24 h [3] of the same compound?
The viability at 24 h was 87.1 ± 2.9%.

For Nc1c(-c2cc[n+](Cc3cccc(Cl)c3)cc2)oc2ccccc12 [5j, 4-(3-Aminobenzofuran-2-yl)-1-(3-chlorobenzyl) pyridin-1-ium chloride], which IC50 (AChE from E. electricus; [4]) is on record?
Its IC50 is 2.99 ± 0.03 µM.

What about the IC50 [1] of the same compound?
The IC50 was 18.8 ± 1.11 µM.

Which IC50 (AChE from E. electricus) does the source give for Nc1c(-c2cc[n+](Cc3ccccc3F)cc2)oc2ccccc12.[Cl-] [5f, 4-(3-Aminobenzofuran-2-yl)-1-(2-fluorobenzyl) pyridin-1-ium chloride] here?
The IC50 was 0.64 ± 0.04 µM.

What about the IC50 [1] of the same compound?
Its IC50 is 0.55 ± 0.07 µM.

What about the “Type of inhibition on AChE” value (AChE) of the same compound?
Its value is “mixed-type inhibition; also recorded: mixed-type inhibitory pattern”.

And the “Effectiveness relative to donepezil in inhibition of self-induced Aβ aggregation” value (Aβ1–42; ThT assay)?
The value was “about 2 fold”.

What about the inhibition at 10 µM (Aβ1–42; [5]) of the same compound?
The inhibition at 10 µM was 29.8 ± 1.8%.

And the inhibition at 100 µM [2]?
Its inhibition at 100 µM is 30.1 ± 1.9%.

And the viability at 24 h [3]?
The viability at 24 h was 86.4 ± 2.6%.

From paper PMC9395670 (Frontiers in Chemistry, 2022)
